{"source": "ChEMBL document CHEMBL3826944", "about": "“Syringaresinol induces mitochondrial biogenesis through activation of PPARβ pathway in skeletal muscle cells” (Bioorg Med Chem Lett, 2016)", "key": {"C2C12 [1]": {"test_system": "C2C12", "assay": "Upregulation of PPARbeta protein expression in PPARbeta siRNA transfected mouse C2C12 myotubes at 1 uM after 24 hrs by immunoblot method", "type": "functional, cell-based"}, "C2C12 [2]": {"test_system": "C2C12", "assay": "Upregulation of PGC1-alpha protein expression in PPARbeta siRNA transfected mouse C2C12 myotubes at 1 uM after 24 hrs by immunoblot method relative to control", "type": "functional, cell-based"}, "C2C12 [3]": {"test_system": "C2C12", "assay": "Upregulation of CPT1 protein expression in PPARbeta siRNA transfected mouse C2C12 myotubes at 1 uM after 24 hrs by immunoblot method relative to control", "type": "functional, cell-based"}, "C2C12 [4]": {"test_system": "C2C12", "assay": "Upregulation of UCP2 protein expression in PPARbeta siRNA transfected mouse C2C12 myotubes at 1 uM after 24 hrs by immunoblot method relative to control", "type": "functional, cell-based"}, "C2C12 [5]": {"test_system": "C2C12", "assay": "Induction of SIRT1 protein expression in mouse C2C12 myotubes at 1 uM after 24 hrs by immunoblot method", "type": "functional, cell-based"}, "Mus musculus [6]": {"species": "Mus musculus", "assay": "Activation of AMPK in mouse C2C12 myotubes assessed as increase in expression of phosphorylated AMPK at Thr-172 residue at 1 uM after 24 hrs by immunoblot method"}, "[7]": {"target": "T1, Peroxisome proliferator-activated receptor delta (Homo sapiens) (UniProt Q03181)", "T1 sequence (whole entry)": "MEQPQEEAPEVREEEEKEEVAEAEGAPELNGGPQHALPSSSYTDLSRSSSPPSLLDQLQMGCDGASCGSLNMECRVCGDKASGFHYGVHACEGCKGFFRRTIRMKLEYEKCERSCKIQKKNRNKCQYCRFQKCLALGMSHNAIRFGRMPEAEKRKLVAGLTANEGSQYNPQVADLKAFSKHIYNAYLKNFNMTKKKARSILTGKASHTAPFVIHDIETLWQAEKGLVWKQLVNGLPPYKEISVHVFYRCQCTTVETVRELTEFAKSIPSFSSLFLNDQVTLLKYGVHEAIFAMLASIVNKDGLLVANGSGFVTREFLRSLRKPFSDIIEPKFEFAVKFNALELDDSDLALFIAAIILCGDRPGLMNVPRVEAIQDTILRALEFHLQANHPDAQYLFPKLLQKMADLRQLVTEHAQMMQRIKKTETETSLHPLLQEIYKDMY", "assay": "(§1) Activation of PPARbeta-LBD (unknown origin) assessed as fluorescein-labeled coactivator C33 recruitment by TR-FRET assay"}, "[8]": {"target": "T2, Peroxisome proliferator-activated receptor delta (Homo sapiens, UniProt Q03181)", "T2 sequence (Q03181 whole entry)": "T1 sequence (whole entry)", "assay": "as §1"}, "[9]": {"target": "T2, Peroxisome proliferator-activated receptor delta", "assay": "Binding affinity to recombinant PPARbeta-LBD (254 to 441 residues) (unknown origin) expressed in Escherichia coli Rosetta2 cells by isothermal titration calorimetry"}, "C2C12 [10]": {"test_system": "C2C12", "assay": "Induction of PPARbeta mRNA expression in mouse C2C12 myotubes at 50 uM after 24 hrs by qRT-PCR method relative to control", "type": "functional"}, "C2C12 [11]": {"test_system": "C2C12", "assay": "Induction of PPARbeta protein expression in mouse C2C12 myotubes at 50 uM after 24 hrs by immunoblot method", "type": "functional, cell-based"}, "C2C12 [12]": {"test_system": "C2C12", "assay": "Induction of PPARbeta mRNA expression in mouse C2C12 myotubes at <50 uM after 24 hrs by qRT-PCR method", "type": "functional, cell-based"}, "C2C12 [13]": {"test_system": "C2C12", "assay": "Induction of PPARbeta protein expression in mouse C2C12 myotubes at <50 uM after 24 hrs by immunoblot method", "type": "functional, cell-based"}, "[14]": {"target": "T3, Peroxisome proliferator-activated receptor delta (Mus musculus) (UniProt P35396)", "T3 sequence (whole entry)": "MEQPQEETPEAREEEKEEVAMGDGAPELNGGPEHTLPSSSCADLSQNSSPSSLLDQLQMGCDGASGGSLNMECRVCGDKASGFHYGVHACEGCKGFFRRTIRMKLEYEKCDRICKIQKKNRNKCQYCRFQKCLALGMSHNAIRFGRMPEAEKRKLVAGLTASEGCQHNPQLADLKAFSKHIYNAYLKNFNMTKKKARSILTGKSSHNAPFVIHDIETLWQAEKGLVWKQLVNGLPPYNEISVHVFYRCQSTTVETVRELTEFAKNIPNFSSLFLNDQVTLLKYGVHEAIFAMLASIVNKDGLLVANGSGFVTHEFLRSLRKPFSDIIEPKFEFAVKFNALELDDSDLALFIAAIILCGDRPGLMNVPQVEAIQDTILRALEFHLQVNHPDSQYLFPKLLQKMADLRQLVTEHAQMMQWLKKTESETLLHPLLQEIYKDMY", "assay": "Activation of PPARbeta in mouse C2C12 myotubes assessed as increase in PGC-1alpha mRNA level at 10 to 25 uM after 24 hrs by qRT-PCR method"}, "[15]": {"target": "T3, Peroxisome proliferator-activated receptor delta (Mus musculus)", "assay": "Activation of PPARbeta in mouse C2C12 myotubes assessed as increase in PGC-1alpha protein expression at 10 to 25 uM after 24 hrs by immunoblot method"}, "C2C12 [16]": {"test_system": "C2C12", "assay": "Induction of mitochondrial biogenesis in mouse C2C12 myotubes assessed as increase in mitochondrial DNA content at 25 to 50 uM after 24 hrs by qRT-PCR method", "type": "functional, cell-based"}, "C2C12 [17]": {"test_system": "C2C12", "assay": "Induction of mitochondrial biogenesis in mouse C2C12 myotubes assessed as increase in mitochondrial density at 25 uM after 24 hrs by Mitotracker Green staining based fluorescence microscopic analysis relative to control", "type": "functional"}, "C2C12 [18]": {"test_system": "C2C12", "assay": "Induction of mitochondrial biogenesis in mouse C2C12 myotubes assessed as increase in mitochondrial density at 50 uM after 24 hrs by Mitotracker Green staining based fluorescence microscopic analysis relative to control", "type": "functional"}, "C2C12 [19]": {"test_system": "C2C12", "assay": "Upregulation of PPARbeta protein expression in PPARbeta siRNA transfected mouse C2C12 myotubes at 50 uM after 24 hrs by immunoblot method", "type": "functional, cell-based"}, "C2C12 [20]": {"test_system": "C2C12", "assay": "Upregulation of PGC1-alpha protein expression in PPARbeta siRNA transfected mouse C2C12 myotubes at 50 uM after 24 hrs by immunoblot method relative to control", "type": "functional, cell-based"}, "C2C12 [21]": {"test_system": "C2C12", "assay": "Upregulation of CPT1 protein expression in PPARbeta siRNA transfected mouse C2C12 myotubes at 50 uM after 24 hrs by immunoblot method relative to control", "type": "functional, cell-based"}, "C2C12 [22]": {"test_system": "C2C12", "assay": "Upregulation of UCP2 protein expression in PPARbeta siRNA transfected mouse C2C12 myotubes at 50 uM after 24 hrs by immunoblot method relative to control", "type": "functional, cell-based"}, "C2C12 [23]": {"test_system": "C2C12", "assay": "Induction of mitochondrial DNA content in PPARbeta siRNA transfected mouse C2C12 myotubes at 50 uM after 24 hrs by qRT-PCR method", "type": "functional, cell-based"}, "C2C12 [24]": {"test_system": "C2C12", "assay": "Induction of mitochondrial density in PPARbeta siRNA transfected mouse C2C12 myotubes at 50 uM after 24 hrs by Mitotracker Green staining based fluorescence microscopic analysis", "type": "functional, cell-based"}, "C2C12 [25]": {"test_system": "C2C12", "assay": "Induction of SIRT1 protein expression in mouse C2C12 myotubes at 50 uM after 24 hrs by immunoblot method", "type": "functional, cell-based"}, "Mus musculus [26]": {"species": "Mus musculus", "assay": "Activation of AMPK in mouse C2C12 myotubes assessed as increase in expression of phosphorylated AMPK at Thr-172 residue at 50 uM after 24 hrs by immunoblot method"}, "C2C12 [27]": {"test_system": "C2C12", "assay": "Induction of mitochondrial DNA content in scramble siRNA transfected mouse C2C12 myotubes at 50 uM after 24 hrs by qRT-PCR method", "type": "functional, cell-based"}, "C2C12 [28]": {"test_system": "C2C12", "assay": "Induction of mitochondrial density in scramble siRNA transfected mouse C2C12 myotubes at 50 uM after 24 hrs by Mitotracker Green staining based fluorescence microscopic analysis", "type": "functional, cell-based"}}, "note": "Calls of active or inactive are those of the source. No cut-off for these calls is given here."}
{"smiles": "Cc1cc(SCc2sc(-c3ccc(C(F)(F)F)c(F)c3)nc2C)ccc1OCC(=O)O", "values": [{"measurement": "Activity", "setting": "C2C12 [1]", "value": "inactive"}, {"measurement": "Activity", "setting": "C2C12 [2]", "value": "inactive"}, {"measurement": "Activity", "setting": "C2C12 [3]", "value": "inactive"}, {"measurement": "Activity", "setting": "C2C12 [4]", "value": "inactive"}, {"measurement": "Activity", "setting": "C2C12 [5]", "value": "Active"}, {"measurement": "Activity", "setting": "Mus musculus [6]", "value": "Active"}]}
{"smiles": "COc1cc([C@H]2OC[C@H]3[C@@H]2CO[C@@H]3c2cc(OC)c(O)c(OC)c2)cc(OC)c1O", "note": "[SYRINGARESINOL]", "values": [{"measurement": "Activity", "setting": "[7]", "value": "Dose-dependent effect"}, {"measurement": "EC50", "setting": "[8]", "value": 18.1, "unit": "µM"}, {"measurement": "Kd", "setting": "[9]", "value": 27.6, "unit": "µM"}, {"measurement": "fold change (FC)", "setting": "C2C12 [10]", "value": ">2"}, {"measurement": "Activity", "setting": "C2C12 [11]", "value": "Active"}, {"measurement": "Activity", "setting": "C2C12 [12]", "value": "inactive"}, {"measurement": "Activity", "setting": "C2C12 [13]", "value": "inactive"}, {"measurement": "Activity", "setting": "[14]", "value": "Active"}, {"measurement": "Activity", "setting": "[15]", "value": "Active"}, {"measurement": "Activity", "setting": "C2C12 [16]", "value": "Dose-dependent effect"}, {"measurement": "Activity", "setting": "C2C12 [17]", "value": 14, "unit": "%"}, {"measurement": "Activity", "setting": "C2C12 [18]", "value": 18, "unit": "%"}, {"measurement": "Activity", "setting": "C2C12 [19]", "value": "inactive"}, {"measurement": "Activity", "setting": "C2C12 [20]", "value": "inactive"}, {"measurement": "Activity", "setting": "C2C12 [21]", "value": "inactive"}, {"measurement": "Activity", "setting": "C2C12 [22]", "value": "inactive"}, {"measurement": "Activity", "setting": "C2C12 [23]", "value": "inactive"}, {"measurement": "Activity", "setting": "C2C12 [24]", "value": "inactive"}, {"measurement": "Activity", "setting": "C2C12 [25]", "value": "inactive"}, {"measurement": "Activity", "setting": "Mus musculus [26]", "value": "inactive"}, {"measurement": "Activity", "setting": "C2C12 [27]", "value": "Active"}, {"measurement": "Activity", "setting": "C2C12 [28]", "value": "Active"}]}
